Patent publication US10363257B2 (ZENITH EPIGENETICS LTD., priority 2013, dated 2019)

Columns and labels:
human AML MV-4-11 cells = test: Inhibition of cell proliferation in MV4-11 cells (CellTiter Aqueous One); assay type: cell-based; conditions: for Cell Proliferation activity: 72 h; for IC50: MV4-11, 72 h
Procedure, shortened: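 IC50 values come from blank-corrected proliferation relative to DMSO controls, read as 490 nm absorbance 3–4 h after CellTiter Aqueous One addition. Before that, cells seeded at 5×10^4/well were exposed for 72 h (37° C, 5% CO2) to triplicate two-fold compound dilutions spanning 30–0.2 μM.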

hIL-6 mRNA = test: Inhibition of hIL-6 mRNA transcription in LPS-stimulated U937 cells; assay type: cell-based; conditions: Homo sapiens, U-937; PMA-differentiated U937 cells, 1 h pretreatment, 1 ug/mL LPS stimulation, 3 h; read-out: IL-6 activity (Inhibition of hIL-6 mRNA Transcription)
Procedure, shortened: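 U937 cells differentiated 3 days with 60 ng/mL PMA, pretreated 1 h with compound (0.1% DMSO), then stimulated with 1 ug/mL E. coli LPS for 3 h at 37 °C. hIL-6 mRNA measured by one-step TaqMan RT-qPCR, normalized to cyclophilin. Fold expression relative to control; triplicate wells.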

[1] = molecular target: T1, Brd4 bromodomain 1 (BRD4(1)) (Homo sapiens, UniProt O60885); test: Inhibition of tetra-acetylated histone H4 binding to Brd4 bromodomain 1 (TR-FRET); conditions: tetra-acetylated histone H4 peptide, first bromodomain of Brd4
T1 construct: made in house; host or cells: E. coli BL21(DE3)
Procedure, shortened: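 Serially diluted compound (0.2% DMSO) incubated 2 h at room temperature with 200 nM N-His BRD4 bromodomain 1 and 25-50 nM biotinylated tetra-acetyl H4 peptide, detected via Eu-streptavidin/XL665 anti-His. Loss of 665 nm relative to 620 nm signal gave IC50 from dose-response.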

c-myc = test: Inhibition of c-myc expression (mRNA, real-time PCR) in MV4-11 cells; assay type: cell-based; conditions: Human AML MV4-11 cells, 3 h, cMYC mRNA
Procedure, shortened: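 One-step TaqMan qPCR of cMYC, normalized to an internal control with Cyclophilin probes run, gave fold expression versus DMSO (0.1%) control. Samples: triplicate MV4-11 wells exposed 3 h at 37° C to rising compound concentrations in IMDM with 10% FBS.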

Cc1noc(C)c1-c1cc2c(c(C)nn2Cc2ccc(F)cc2)[n+]([O-])c1 [Example Compound 24, 6-(3,5-dimethylisoxazol-4-yl)-1-(4-fluorobenzyl)-3-methyl-1H-pyrazolo[4,3-b]pyridine-4-oxide]
Cell Proliferation activity (human AML MV-4-11 cells): Not active
IC50 (hIL-6 mRNA): 300 to 3000 nM
IC50 [1]: ≤ 300 nM
IC50 (c-myc): 3000 to 30000 nM

Cc1noc(C)c1-c1cnc2[nH]c(=O)n(CC3CC3)c2c1 [compound 118, 1-(cyclopropylmethyl)-6-(3,5-dimethylisoxazol-4-yl)-1H-imidazo[4,5-b]pyridin-2(3H)-one]
IC50 (human AML MV-4-11 cells): 300 to 3000 nM
IC50 (hIL-6 mRNA): 300 to 3000 nM
IC50 [1]: ≤ 300 nM
IC50 (c-myc): 300 to 3000 nM

Cc1noc(C)c1-c1ccc2ccn(Cc3ccc(F)cc3)c2n1 [Example Compound 49, 4-(1-(4-fluorobenzyl)-1H-pyrrolo[2,3-b]pyridin-6-yl)-3,5-dimethylisoxazole]
IC50 (human AML MV-4-11 cells): 3000 to 30000 nM
IC50 (hIL-6 mRNA): 3000 to 30000 nM
IC50 [1]: 3000 to 30000 nM
IC50 (c-myc): 3000 to 30000 nM

Cc1noc(C)c1-c1cc([N+](=O)[O-])c2nc(C)n(CC3CCC3)c2c1 [compound 116, 4-(1-(cyclobutylmethyl)-2-methyl-4-nitro-1H-benzo[d]imidazol-6-yl)-3,5-dimethylisoxazole]
IC50 (human AML MV-4-11 cells): ≤ 300 nM
IC50 (hIL-6 mRNA): 300 to 3000 nM
IC50 [1]: ≤ 300 nM
IC50 (c-myc): ≤ 300 nM

Cc1noc(C)c1-c1cnc2nc(C)n(Cc3ccc(C#N)s3)c2c1 [compound 78, 5-((6-(3,5-dimethylisoxazol-4-yl)-2-methyl-1H-imidazo[4,5-b]pyridin-1-yl)methyl)thiophene-2-carbonitrile]
IC50 (human AML MV-4-11 cells): 3000 to 30000 nM
IC50 (hIL-6 mRNA): 300 to 3000 nM
IC50 [1]: ≤ 300 nM
IC50 (c-myc): 3000 to 30000 nM

Cc1noc(C)c1-c1cc(N)c2nc(C)n([C@@H](C)c3ccccc3)c2c1 [compound 143, (S)-6-(3,5-dimethylisoxazol-4-yl)-2-methyl-1-(1-phenylethyl)-1H-benzo[d]imidazol-4-amine]
IC50 (human AML MV-4-11 cells): ≤ 300 nM
IC50 (hIL-6 mRNA): ≤ 300 nM
IC50 [1]: ≤ 300 nM
IC50 (c-myc): ≤ 300 nM

Cc1noc(C)c1-c1cc(F)c2nc(C)n(Cc3ccccc3)c2c1 [compound 158, 4-(1-benzyl-4-fluoro-2-methyl-1H-benzo[d]imidazol-6-yl)-3,5-dimethylisoxazole]
IC50 (human AML MV-4-11 cells): 300 to 3000 nM
IC50 (hIL-6 mRNA): 300 to 3000 nM
IC50 [1]: ≤ 300 nM
IC50 (c-myc): 300 to 3000 nM

Cc1noc(C)c1-c1cnc2cnn(Cc3ccccc3)c2c1 [compound 92, 4-(1-benzyl-1H-pyrazolo[4,3-b]pyridin-6-yl)-3,5-dimethylisoxazole]
IC50 (human AML MV-4-11 cells): 300 to 3000 nM
IC50 (hIL-6 mRNA): 300 to 3000 nM
IC50 [1]: ≤ 300 nM
IC50 (c-myc): 300 to 3000 nM

Cc1noc(C)c1-c1cc([N+](=O)[O-])c2[nH]c(=O)n(Cc3ccccc3)c2c1 [Example Compound 15, 1-benzyl-6-(3,5-dimethylisoxazol-4-yl)-4-nitro-1H-benzo[d]imidazol-2(3H)-one]
IC50 (human AML MV-4-11 cells): 300 to 3000 nM
IC50 (hIL-6 mRNA): 300 to 3000 nM
IC50 [1]: ≤ 300 nM
IC50 (c-myc): 300 to 3000 nM

Cc1noc(C)c1-c1cc(N)c2nc(N3CCC3)n(Cc3ccccc3)c2c1 [compound 97, 2-(azetidin-1-yl)-1-benzyl-6-(3,5-dimethylisoxazol-4-yl)-1H-benzo[d]imidazol-4-amine]
IC50 (human AML MV-4-11 cells): ≤ 300 nM
IC50 (hIL-6 mRNA): ≤ 300 nM
IC50 [1]: ≤ 300 nM
IC50 (c-myc): ≤ 300 nM

Cc1noc(C)c1Nc1cnc2nc(C)n(Cc3ccccc3)c2c1 [compound 155, N-(1-benzyl-2-methyl-1H-imidazo[4,5-b]pyridin-6-yl)-3,5-dimethylisoxazol-4-amine]
Cell Proliferation activity (human AML MV-4-11 cells): Not active
IC50 (hIL-6 mRNA): 300 to 3000 nM
IC50 [1]: ≤ 300 nM
IC50 (c-myc): 3000 to 30000 nM

Cc1noc(C)c1-c1ccc2[nH]c(=O)n(Cc3ccccc3)c2n1 [Example Compound 2, 3-Benzyl-5-(3,5-dimethylisoxazol-4-yl)-1H-imidazo[4,5-b]pyridin-2(3H)-one]
IC50 (human AML MV-4-11 cells): 300 to 3000 nM
IC50 (hIL-6 mRNA): 300 to 3000 nM
IC50 [1]: ≤ 300 nM
IC50 (c-myc): 3000 to 30000 nM

Cc1noc(C)c1-c1cnc2nc(N3CCC3)n(Cc3ccccc3)c2c1 [compound 123, 4-(2-(azetidin-1-yl)-1-benzyl-1H-imidazo[4,5-b]pyridin-6-yl)-3,5-dimethylisoxazole]
IC50 (human AML MV-4-11 cells): 300 to 3000 nM
IC50 (hIL-6 mRNA): ≤ 300 nM
IC50 [1]: ≤ 300 nM
IC50 (c-myc): ≤ 300 nM

CCNc1nc2c(NC(C)=O)cc(-c3c(C)noc3C)cc2n1Cc1ccccc1 [compound 119, N-(1-benzyl-6-(3,5-dimethylisoxazol-4-yl)-2-(ethylamino)-1H-benzo[d]imidazol-4-yl)acetamide]
IC50 (human AML MV-4-11 cells): ≤ 300 nM
IC50 (hIL-6 mRNA): ≤ 300 nM
IC50 [1]: ≤ 300 nM
IC50 (c-myc): ≤ 300 nM

Cc1noc(C)c1-c1cc(NCc2ccccc2)c2ncn(Cc3ccccc3)c2c1 [Example Compound 9, N,1-Dibenzyl-6-(3,5-dimethylisoxazol-4-yl)-1H-benzo[d]imidazol-4-amine]
IC50 (human AML MV-4-11 cells): 3000 to 30000 nM
IC50 (hIL-6 mRNA): 3000 to 30000 nM
IC50 [1]: 3000 to 30000 nM
IC50 (c-myc): 3000 to 30000 nM

Cc1noc(C)c1-c1cc(C#N)c2[nH]c(=O)n(Cc3ccccc3)c2c1 [compound 86, 1-benzyl-6-(3,5-dimethylisoxazol-4-yl)-2-oxo-2,3-dihydro-1H-benzo[d]imidazole-4-carbonitrile]
IC50 (human AML MV-4-11 cells): 3000 to 30000 nM
IC50 (hIL-6 mRNA): 300 to 3000 nM
IC50 [1]: ≤ 300 nM
IC50 (c-myc): 300 to 3000 nM

Cc1noc(C)c1-c1cc(N)c2nc(NC3CCOCC3)n(Cc3ccccc3)c2c1 [compound 109, 1-benzyl-6-(3,5-dimethylisoxazol-4-yl)-N2-(tetrahydro-2H-pyran-4-yl)-1H-benzo[d]imidazole-2,4-diamine]
IC50 (human AML MV-4-11 cells): ≤ 300 nM
IC50 (hIL-6 mRNA): ≤ 300 nM
IC50 [1]: ≤ 300 nM
IC50 (c-myc): ≤ 300 nM

Cc1noc(C)c1-c1cc(N(C)C)c2ncn(Cc3ccc(F)cc3)c2c1 [Example Compound 29, 6-(3,5-dimethylisoxazol-4-yl)-1-(4-fluorobenzyl)-N,N-dimethyl-1H-benzo[d]imidazol-4-amine]
IC50 (human AML MV-4-11 cells): 300 to 3000 nM
IC50 (hIL-6 mRNA): 300 to 3000 nM
IC50 [1]: ≤ 300 nM
IC50 (c-myc): 300 to 3000 nM

Cc1noc(C)c1-c1cc([N+](=O)[O-])c2[nH]c(=O)n(Cc3ccc(Cl)cc3)c2c1 [compound 91, 1-(4-chlorobenzyl)-6-(3,5-dimethylisoxazol-4-yl)-4-nitro-1H-benzo[d]imidazol-2(3H)-one]
IC50 (human AML MV-4-11 cells): 3000 to 30000 nM
IC50 (hIL-6 mRNA): 300 to 3000 nM
IC50 [1]: ≤ 300 nM
IC50 (c-myc): 300 to 3000 nM

Cc1noc(C)c1-c1cc(N)c2[nH]c(=O)n(C(C)c3ccccc3)c2c1 (stereo not drawn) [compound 115, 4-amino-6-(3,5-dimethylisoxazol-4-yl)-1-(1-phenylethyl)-1H-benzo[d]imidazol-2(3H)-one]
IC50 (human AML MV-4-11 cells): ≤ 300 nM
IC50 (hIL-6 mRNA): ≤ 300 nM
IC50 [1]: ≤ 300 nM
IC50 (c-myc): ≤ 300 nM

Cc1noc(C)c1-c1cnc2nc(N3CCOCC3)n(CC3CCCC3)c2c1 [compound 208, 4-(1-(cyclopentylmethyl)-6-(3,5-dimethylisoxazol-4-yl)-1H-imidazo[4,5-b]pyridin-2-yl)morpholine]
IC50 (human AML MV-4-11 cells): 300 to 3000 nM
IC50 (hIL-6 mRNA): ≤ 300 nM
IC50 [1]: ≤ 300 nM
IC50 (c-myc): ≤ 300 nM

CNc1nc2ncc(-c3c(C)noc3C)cc2n1Cc1ccccc1 [compound 146, 1-benzyl-6-(3,5-dimethylisoxazol-4-yl)-N-methyl-1H-imidazo[4,5-b]pyridin-2-amine]
IC50 (human AML MV-4-11 cells): ≤ 300 nM
IC50 (hIL-6 mRNA): ≤ 300 nM
IC50 [1]: ≤ 300 nM
IC50 (c-myc): ≤ 300 nM

Cc1noc(C)c1-c1cnc2nc(C)n(C(C)c3ccccc3)c2c1 (stereo not drawn) [compound 108, 3,5-dimethyl-4-(2-methyl-1-(1-phenylethyl)-1H-imidazo[4,5-b]pyridin-6-yl)isoxazole]
IC50 (human AML MV-4-11 cells): 300 to 3000 nM
IC50 (hIL-6 mRNA): ≤ 300 nM
IC50 [1]: ≤ 300 nM
IC50 (c-myc): 300 to 3000 nM

Cc1noc(C)c1-c1cnc2nc(C)n(Cc3ccc(Cl)cc3)c2c1 [compound 83, 4-(1-(4-chlorobenzyl)-2-methyl-1H-imidazo[4,5-b]pyridin-6-yl)-3,5-dimethylisoxazole]
IC50 (human AML MV-4-11 cells): 300 to 3000 nM
IC50 (hIL-6 mRNA): 300 to 3000 nM
IC50 [1]: ≤ 300 nM
IC50 (c-myc): 300 to 3000 nM

Cc1noc(C)c1-c1cc(N)c2nc(C)n([C@H](C)c3ccccc3)c2c1 [compound 144, (R)-6-(3,5-dimethylisoxazol-4-yl)-2-methyl-1-(1-phenylethyl)-1H-benzo[d]imidazol-4-amine]
IC50 (human AML MV-4-11 cells): ≤ 300 nM
IC50 (hIL-6 mRNA): ≤ 300 nM
IC50 [1]: ≤ 300 nM
IC50 (c-myc): ≤ 300 nM

COc1cc(-c2c(C)noc2C)cc2c1nc(C)n2Cc1ccccc1 [Example Compound 66, 4-(1-benzyl-4-methoxy-2-methyl-1H-benzo[d]imidazol-6-yl)-3,5-dimethylisoxazole]
IC50 (human AML MV-4-11 cells): 300 to 3000 nM
IC50 (hIL-6 mRNA): 300 to 3000 nM
IC50 [1]: ≤ 300 nM
IC50 (c-myc): 300 to 3000 nM

CCn1c(=O)n(Cc2ccccc2)c2cc(-c3c(C)noc3C)ccc21 [compound 122]
IC50 (human AML MV-4-11 cells): ≤ 300 nM
IC50 (hIL-6 mRNA): 300 to 3000 nM
IC50 [1]: ≤ 300 nM
IC50 (c-myc): 300 to 3000 nM
